Data from patent US20030232862A1 (priority 2002, published 2003).
Read-outs that look alike come from different tables or passages of the source.

How the values were obtained:
HT-29 cells = test: Growth inhibition of HT-29 cells (SRB assay; trypan blue counting in time course); format: cell-based, human; conditions: for Growth Inhibition: Table 9 qualitative profile
Cyclooxygenase (COX) = target: T1, Cyclooxygenase (COX) (Ovis aries, UniProt P05979); test: COX inhibition assay, single dose screen (Table 2); format: biochemical; conditions: for COX Inhibition: Table 9 qualitative profile
T1 sequence (P05979 25-600): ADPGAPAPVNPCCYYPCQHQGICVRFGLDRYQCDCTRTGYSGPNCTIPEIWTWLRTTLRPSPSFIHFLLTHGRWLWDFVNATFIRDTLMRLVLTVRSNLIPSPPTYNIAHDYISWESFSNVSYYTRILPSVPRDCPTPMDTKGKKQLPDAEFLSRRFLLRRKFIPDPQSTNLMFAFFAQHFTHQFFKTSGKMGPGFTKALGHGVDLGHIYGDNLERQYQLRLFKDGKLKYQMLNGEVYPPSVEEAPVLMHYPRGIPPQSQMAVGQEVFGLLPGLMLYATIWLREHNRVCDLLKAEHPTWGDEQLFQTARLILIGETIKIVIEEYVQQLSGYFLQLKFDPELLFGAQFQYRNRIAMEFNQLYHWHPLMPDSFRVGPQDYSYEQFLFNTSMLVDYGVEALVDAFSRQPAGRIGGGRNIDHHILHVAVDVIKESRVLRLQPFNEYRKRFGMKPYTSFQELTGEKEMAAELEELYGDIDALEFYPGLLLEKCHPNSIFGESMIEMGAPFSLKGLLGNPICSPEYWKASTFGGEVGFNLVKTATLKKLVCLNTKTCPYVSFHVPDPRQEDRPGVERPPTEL

[1] = target: cGMP PDE purified from human colon HT-29 cultured tumor cells (Homo sapiens, UniProt O76074); test: cGMP PDE inhibition assay; format: biochemical; conditions: for PDE Inhibition: Table 9 qualitative profile
[2] = system: premalignant lesions in mouse mammary gland organ culture; test: Mammary gland organ culture model; as to mammary gland organ culture: key: −: Not active; +: Slightly active; + +: Moderately active; + + +: Strongly active; + + + +: Highly active; format: cell-based; conditions: for inhibition of formation of premalignant lesions: FIG. 17
Excerpt: Test compounds identified by the above methods can be tested for antineoplastic activity by their ability to inhibit the incidence of pre-neoplastic lesions in a mammary gland organ culture system. This mouse mammary gland organ culture technique has been successfully used by other investigators to study the effects of known antineoplastic agents such as certain NSAIDs, retinoids, tamoxifen, selenium, and certain natural products, and is useful for validation of the screening method of the present invention.
For example, female BALB/c mice can be treated with a combination of estradiol and progesterone daily, in order to prime the glands to be responsive to hormones in vitro. The animals are sacrificed, and thoracic mammary glands are excised aseptically and incubated for ten days in growth media supplemented with insulin, prolactin, hydrocortisone, and aldosterone. DMBA (7,12-dimethylbenz(a)anthracene) is added to medium to induce the formation of premalignant lesions. Fully developed glands are then deprived of prolactin, hydrocortisone, and aldosterone, resulting in the regression of the glands but not the pre-malignant lesions.
The test compound is dissolved in DMSO and added to the culture media for the duration of the culture period. At the end of the culture period, the glands are fixed in 10% formalin, stained with alum carmine, and mounted on glass slides. The incidence of forming mammary lesions is the ratio of the glands with mammary lesions to […]. The incidence of mammary lesions in test compound treated glands is compared with that of the untreated glands.
The extent of the area occupied by the mammary lesions can be quantitated by projecting an image of the gland onto a digitation pad. The area covered by the gland is traced on the pad and considered as 100% of the area. The space covered by each of the non-regressed structures is also outlined on the digitization pad and quantitated by the computer.
Mammary gland organ culture experiment were performed as previously described (Mehta and Moon, Cancer Research, 46: 5832-5835, 1986).

[3] = system: Peak B's (from SW480, HTB-26, and LnCAP); test: FPLC-isolated Peak B PDE activity from three neoplastic cell lines; format: biochemical
Method: The novel Peak B was also isolated from two other neoplastic cell lines, a breast cancer cell line, HTB-26, and a prostate cancer cell line, LnCAP, by a procedure similar to the one above used to isolate it from SW480. The protocol was modified in several respects. To provide even greater reproducibility to allow comparison of different cell lines, a Pharmacia AKTA FPLC was used to control sample loading and elution on an 18 mL DEAE TrisAcryl M column. SW840 was run by this same procedure multiple times to provide a reference of Peak B. 200-400 million cells of SW480 were used for the profiles. 70 million cells of LnCAP were used for a profile (see FIGS. 22 and 23), and in a separate experiment 32 million cells of HTB-26 were used for a profile (see FIGS. 20 and 21). After re-suspending cells in homogenization buffer, samples were manually homogenized. FPLC buffer A was 8 mM TRIS-acetate, 5 mM Mg acetate, 0.1 mM EDTA, pH 7.5 and buffer B was 8 mM TRIS-acetate, 5 mM Mg acetate, 0.1 mM EDTA, 1 M Na acetate, pH 7.5. Supernatants were loaded onto the column at 1 mL per minute, followed by a wash with 60 mL buffer A at 1 mL per minute. A gradient was run from 0-15% buffer B in 60 mL, 15-50% buffer B in 60 mL, and 50-100% buffer B in 16 mL. During the gradient 1.5 mL fractions were collected.

[4] = target: T2, cGMP binding sites of GST-cGB-PDE5 fusion protein (Homo sapiens, UniProt O76074); test: cGMP binding assay with GST-cGB-PDE5 fusion protein; conditions: for competition with cGMP binding at high concentration: 100 μM, cGMP 2 μM
T2 construct: made in house; host or cells: E. coli BL21 (DE3)

[5] = target: T3, PDE Peak A (PDE5) from SW480 cells (Homo sapiens, UniProt O76074); test: cGMP hydrolysis by PDE Peak A (PDE5) isolated from SW480 cells; format: biochemical
T3 construct: To isolate the novel phosphodiesterase from SW480, approximately four hundred million SW480 cells were grown to confluence; endogenous in cells; host or cells: SW480 colon cancer cells; 105,000 g supernatant, DEAE-Trisacryl M fraction

[6] = system: HT-29 colon adenocarcinoma cells; test: Apoptosis by DNA fragmentation assay in HT-29 cells; format: cell-based, human; conditions: Table 9 qualitative profile; also: key: −: Not active; +: Slightly active; + +: Moderately active; + + +: Strongly active; + + + +: Highly active
[7] = system: SW-480 colon adenocarcinoma cells; test: Apoptosis fold induction protocol (DNA fragmentation, Table 4); conditions: 100 μM; cell line not given

Molecule: CC(=O)NC(CSC12CC(=O)OC1(C)/C(=C/c1ccc(S(C)(=O)=O)cc1)c1ccc(F)cc12)C(=O)O (racemic) [D, rac-(E)-1-(butan-1′,4′-olido)-[3′,4′:1,2]-6-fluoro-2-methyl-3-(p-methylsulfonylbenzylidene)-1S-indanyl-N-acetylcysteine]
- % Inhibition at 100 μM (growth) (HT-29 cells): 78%
- Growth Inhibition (HT-29 cells): + +
- % Inhibition at 100 μM (cyclooxygenase) (Cyclooxygenase (COX)): <25%

Molecule: CC1=C(CC(=O)O)c2cc(F)ccc2/C1=C\c1ccc(Cl)cc1 [Compound C, (Z)-5-Fluoro-2-methyl-1-(p-chlorobenzylidene)-3-acetic acid]
- % Inhibition at 10 μM (cGMP PDE) [1]: <25%
- % Inhibition at 100 μM (growth) (HT-29 cells): 80%

Molecule: rac-(E)-1-(butan-1′,4′-olido)-[3′,4′:1,2]-6-fluoro-2-methyl-3-(p-methylsulfonylbenzylidene)-1S-indanyl-glutathione)
- PDE Inhibition [1]: −
- Growth Inhibition (HT-29 cells): + +

Molecule: CC1=C(CC(=O)O)c2cc(F)ccc2/C1=C\c1ccc([S+](C)[O-])cc1 (centres unmarked) [sulindac, reference compound]
- inhibition of formation of premalignant lesions [2]: effectively inhibit

Molecule: O=C([O-])C1CCN(c2nc(NCc3ccc4c(c3)OCO4)c3cc(Cl)ccc3n2)CC1.[Na+] [Example E4021, reference compound]
- sensitivity of Peak B cGMP PDE activity ([3]; 100 nM, 0.25 μM cGMP): resistant
- % Inhibition at 100 μM (growth) (HT-29 cells): <50%

Molecule: Nc1nc2c(nc(Br)n2[C@@H]2O[C@@H]3COP(=O)(O)O[C@H]3[C@H]2O)c(=O)[nH]1 [Example 8-bromo-cGMP]
- competition with cGMP binding at high concentration [4]: partially compete

Molecule: 5-fluoro-2-methyl-1-(p-methylsulfinylbenzylidene)-3-indenylacetic acid [Sulindac sulfide, reference compound]
- competitive (with cGMP) inhibition/binding, Peak A [5]: competitively inhibited
- % Inhibition at 10 μM (cGMP PDE) [1]: 97%
- PDE Inhibition [1]: + + +
- IC50 ([1]; read-out: IC50 for inhibition of cGMP PDE): 17 µM
- % Inhibition at 100 μM (cyclooxygenase) (Cyclooxygenase (COX)): 97%
- COX Inhibition (Cyclooxygenase (COX)): + + + +
- inhibition of formation of premalignant lesions [2]: inactive
- Apoptosis [6]: + + +

Molecule: CC1=C(CC(=O)N(C2CCCCC2)C2CCCCC2)c2cc(F)ccc2/C1=C\c1ccc(S(C)(=O)=O)cc1 [F, (Z)-5-Fluoro-2-methyl-1-(p-methylsulfonylbenzylidene)-3-indenylacetamide, N,N′-dicyclohexyl]
- PDE Inhibition [1]: −
- Growth Inhibition (HT-29 cells): + +

Molecule: Nc1ccn([C@@H]2O[C@@H]3COP(=O)(O)O[C@H]3[C@H]2O)c(=O)n1 [cCMP]
- competition with cGMP in binding of GST-cGB-PDE5 ([4]; 3H-cGMP 2 μM): did not compete

Molecule: O=c1[nH]cnc2c1ncn2[C@@H]1O[C@@H]2COP(=O)(O)O[C@H]2[C@H]1O [Cyclic IMP]
- competition with cGMP binding at high concentration [4]: partially compete

Molecule: Nc1ncnc2c1ncn2[C@@H]1O[C@@H]2COP(=O)(O)O[C@H]2[C@H]1O [Cyclic AMP]
- competition with cGMP in binding of GST-cGB-PDE5 [4]: did not compete

Molecule: CCCCOC1C2OP(=O)(O)OCC2OC1n1cnc2c(=O)[nH]c(N)nc21 (centres unmarked) [2′-O-butyl-cGMP]
- competition with cGMP in binding of GST-cGB-PDE5 ([4]; 3H-cGMP 2 μM): did not compete

Molecule: ribo-(E)-1-Triazolo-[2′,3′:1″,3″]-1-(butan-1′,4′-olido)-[3′,4′:1,2]-6-fluoro-2-methyl-3-(p-methylsulfonylbenzylidene)-indan [G]
- PDE Inhibition [1]: −
- Growth Inhibition (HT-29 cells): + +
- Mammary Gland Organ Culture ([2]; Table 9 qualitative profile): + + +
- Apoptosis [6]: + +

Molecule: CCCCCC[C@@H]([C@@H](C)O)n1cnc2c(N)ncnc21 (racemic) [EHNA]
- Fold induction at 100 μM (apoptosis) [7]: <2.0 fold

Molecule: CCCCOC1C2OP(=O)(O)OCC2OC1n1cnc2c(N)ncnc21 (centres unmarked) [2′-O-butyl-cAMP]
- competition with cGMP in binding of GST-cGB-PDE5 ([4]; 3H-cGMP 2 μM): did not compete

Molecule: CCCc1nn(C)c2c(=O)[nH]c(-c3cc(S(=O)(=O)N4CCN(C)CC4)ccc3OCC)nc12 [Sildenafil, reference compound]
- inhibition of activity of Peak A [5]: inhibited activity of Peak A

Molecule: COc1ccc(C2CNC(=O)C2)cc1OC1CCCC1 (centres unmarked) [Rolipram]
- inhibition of cAMP PDE activity in Peak B fractions [3]: inhibited most of the cAMP PDE activity

Molecule: O=c1ccn([C@@H]2O[C@@H]3COP(=O)(O)O[C@H]3[C@H]2O)c(=O)[nH]1 [cUMP]
- competition with cGMP in binding of GST-cGB-PDE5 ([4]; 3H-cGMP 2 μM): did not compete

Molecule: Clc1cccc(Nc2nnc(-c3ccccc3)c3ccccc23)c1 [MY5445, 1-(3-chloroanilino)-4-phenyphthalazine, reference compound]
- Growth Inhibition (HT-29 cells): + + +
- % Inhibition at 100 μM (cyclooxygenase) (Cyclooxygenase (COX)): 94%
- COX Inhibition (Cyclooxygenase (COX)): + + +
- Apoptosis [6]: + + +
